{"source": "patent US4839385A", "about": "“Use of manoalide and its derivatives for modifying calcium homeostasis” (The Regents of the University of California, priority 1987, dated 1989)", "format_in_all_cases": "cell-based", "key": {"Mouse spleen cells": {"system": "Mouse spleen cells", "test": "Effect of manoalide on Con A-induced rise in intracellular calcium in mouse spleen cells (FURA-2)", "protocol": "When 40 μg/ml Con A was added to single cell suspensions of mouse spleen cells were prepared by the standard methods, a rapid rise in intracellular calcium was observed. This calcium signal is characteristic of calcium moving from outside the cell to inside through a plasma membrane channel. If calcium is removed from the external medium, the rise in intracellular calcium is completely absent.\n(§1) The concentration of free intracellular calcium was determined by loading the cells with a calcium sensitive florescent dye, FURA-2® (Grynkiewicz, G., Poenig, M. and Tsien, R. J., Biol. Chem 260: 3440-3450, 1985). Fluorescence measurements and calibration curves were done the same as for Quin-2, Pandol, S., Schoeffield, M., Sachs, G. and Muallem, S. (J. Biol. Chem 10081-10086, 1985).\n(§2) Once the cells were loaded, aliquots (10^6 cells/ml) were placed in cuvettes and the baseline intracellular calcium concentration determined.\n(§3) Manoalide was dissolved in polyethylene glycol 400 or dimethylsulfoxide and added as indicated before the Con A was added to the cuvette.\n(§4) *All cells were preincubated at 37° C. for 5 minutes before\n(§5) addition of Con A (40 μg/ml)."}, "Human lymphocytes": {"system": "Human lymphocytes", "test": "Effect of manoalide on Con A-induced calcium rise in human lymphocytes (FURA-2)", "conditions": "Lymphocyte, 5 min preincubation 37° C., Con A 40 μg/ml", "protocol": "as §1, §2, §3\nSimilar results were obtained with human lymphocytes isolated and prepared according to the method of Muallem, et al.\nas §4, §5"}, "Parietal cells": {"system": "Parietal cells", "test": "Acid secretion in parietal cells after carbachol or forskolin stimulation"}, "Peptic cells [1]": {"system": "Peptic cells", "test": "CCK or carbachol stimulated increase in calcium (release from intracellular stores) in peptic cells", "protocol": "(§6) Gastric glands contain both peptic cells (release of calcium from intracellular stores) and parietal cells (plasma membrane calcium channel). Gastric cells were isolated as described by Muallem, et. al. (Amer. J. Physiol. 248-G216-G228, 1985). Addition of CCK or carbachol to a final concentration of […] and 0.1 mM respectively were used to activate these cells. Muallem et al. (J. Biol. Chem.: In Press, 1986) have shown that these hormones stimulate these cells and result in an increase in free intracellular cytosolic calcium.\n(§7) With peptic cells, the hormones CCK or carbachol cause release of calcium from intracellular stores. […] The calcium signal in these cells is different from that observed in the conconavalin stimulated release of calcium from spleen cells.\nThe calcium transient observed is characteristic of the release of calcium from intracellular stores. If calcium is removed from the extracellular medium it has no effect on the calcium signal."}, "Peptic cells [2]": {"system": "Peptic cells", "test": "Pepsin secretion in peptic cells after CCK, carbachol or forskolin stimulation", "protocol": "as §6, §7\nTo examine the correlation between secretion and the calcium signal, the effects of manoalide on pepsin secretion were quantitated (Table 3)."}, "A431 cells": {"system": "A431 cells", "test": "EGF-induced calcium signal in A431 human epidermoid carcinoma cells", "conditions": "1.5 μM; 5 minutes; EGF 5 μg/ml", "protocol": "The A431 cell line, human epidermoid carcinoma cell, can be activated with 5 μg/ml epidermal growth factor (EGF). Sawyer, S. T. and Cohen, S (Biochemistry 20, 6280-6286, 1981) have shown that EGF enhances calcium uptake in these cells.\nA431 Cells were grown in 150 ml Falcon flasks containing Dulbecco's modified Eagle's medium (Gibco) supplemented with 10% fetal calf serum (Irvine Scientific) and gentamycin."}, "EL-4": {"system": "EL-4", "test": "Inhibition of growth of tumor cell line EL-4"}, "[3]": {"system": "plasma membrane calcium channels", "test": "Calcium entry through plasma membrane calcium channels, gastric glands", "conditions": "1 μM and less", "source_text": "(§8) The effect of manoalide on intracellular calcium levels was investigated through experiments using gastric glands. These glands contain two types of cells that use either plasma membrane channels or release from intracellular stores to increase cytosolic calcium."}, "intracellular stores": {"system": "intracellular stores", "test": "Calcium release from intracellular stores, gastric glands", "conditions": "30-50 μM", "source_text": "as §8"}}}
{"smiles": "CC1=C(CC/C(C)=C/CCC2=CCC(C3=CC(=O)OC3O)OC2O)C(C)(C)CCC1", "note": "(centres unmarked) [manoalide]", "values": [{"measurement": "inhibition of the rise in intracellular calcium", "setting": "Mouse spleen cells; 0.5 μM, 5 min preincubation 37° C., 40 μg/ml Con A", "value": "complete inhibition"}, {"measurement": "nature of the inhibition of the calcium signal", "setting": "Mouse spleen cells; Con A 40 μg/ml", "value": "time dependent and irreversible"}, {"measurement": "inhibition at 0.01 µM", "setting": "Mouse spleen cells; Mus musculus, 0.01 μM, 5 min preincubation 37° C., Con A 40 μg/ml", "value": 0, "unit": "%"}, {"measurement": "inhibition at 0.1 µM", "setting": "Mouse spleen cells; Mus musculus, 0.1 μM, 5 min preincubation 37° C., Con A 40 μg/ml", "value": 30, "unit": "%"}, {"measurement": "inhibition at 0.3 µM", "setting": "Mouse spleen cells; Mus musculus, 0.3 μM, 5 min preincubation 37° C., Con A 40 μg/ml", "value": 70, "unit": "%"}, {"measurement": "inhibition at 1 µM", "setting": "Mouse spleen cells; Mus musculus, 1.0 μM, 5 min preincubation 37° C., Con A 40 μg/ml", "value": 100, "unit": "%"}, {"measurement": "inhibition at 0.05 µM", "setting": "Human lymphocytes; 0.05 μM", "value": 0, "unit": "%"}, {"measurement": "inhibition at 0.1 µM", "setting": "Human lymphocytes; 0.1 μM", "value": 15, "unit": "%"}, {"measurement": "inhibition at 0.25 µM", "setting": "Human lymphocytes; 0.25 μM", "value": 30, "unit": "%"}, {"measurement": "inhibition at 0.5 µM", "setting": "Human lymphocytes; 0.5 μM", "value": 65, "unit": "%"}, {"measurement": "inhibition at 1 µM", "setting": "Human lymphocytes; 1.0 μM", "value": 100, "unit": "%"}, {"measurement": "activity at 0.1 µM", "setting": "Parietal cells; Carbachol Stimulation", "value": 50, "unit": "%"}, {"measurement": "activity at 0.1 µM", "setting": "Parietal cells; Forskolin", "value": 100, "unit": "%"}, {"measurement": "activity at 0.5 µM", "setting": "Parietal cells; Carbachol Stimulation", "value": 10, "unit": "%"}, {"measurement": "activity at 0.5 µM", "setting": "Parietal cells; Forskolin", "value": 100, "unit": "%"}, {"measurement": "activity at 5 µM", "setting": "Parietal cells; Carbachol Stimulation", "value": 0, "unit": "%"}, {"measurement": "activity at 5 µM", "setting": "Parietal cells; Forskolin", "value": 100, "unit": "%"}, {"measurement": "activity at 50 µM", "setting": "Parietal cells; Carbachol Stimulation", "value": 0, "unit": "%"}, {"measurement": "activity at 50 µM", "setting": "Parietal cells; Forskolin", "value": 100, "unit": "%"}, {"measurement": "acid secretion in parietal cells", "setting": "Parietal cells; preincubation with 0.1-5.0 μM", "value": "blocked acid secretion"}, {"measurement": "inhibition of CCK or carbachol stimulated increase in calcium", "setting": "Peptic cells [1]; 5 μM", "value": "no inhibition"}, {"measurement": "inhibition of the calcium signal", "setting": "Peptic cells [1]; 50 μM or higher", "value": "showed inhibition of the calcium signal"}, {"measurement": "nature of the inhibition of the calcium signal", "setting": "Peptic cells [1]; 50 μM or higher", "value": "irreversible and time dependent"}, {"measurement": "inhibition of the calcium signal", "setting": "Peptic cells [1]; 60 μM", "value": "significant inhibition of the calcium signal"}, {"measurement": "activity at 0.1 µM", "setting": "Peptic cells [2]; CCK Stimulation (N = 5)", "value": 100, "unit": "%"}, {"measurement": "activity at 0.1 µM", "setting": "Peptic cells [2]; Carbachol (2)", "value": 100, "unit": "%"}, {"measurement": "activity at 0.1 µM", "setting": "Peptic cells [2]; Forskolin (2)", "value": 100, "unit": "%"}, {"measurement": "activity at 0.5 µM", "setting": "Peptic cells [2]; CCK Stimulation (N = 5)", "value": 105, "unit": "%"}, {"measurement": "activity at 0.5 µM", "setting": "Peptic cells [2]; Carbachol (2)", "value": 110, "unit": "%"}, {"measurement": "activity at 0.5 µM", "setting": "Peptic cells [2]; Forskolin (2)", "value": 100, "unit": "%"}, {"measurement": "activity at 5 µM", "setting": "Peptic cells [2]; CCK Stimulation (N = 5)", "value": 115, "unit": "%"}, {"measurement": "activity at 5 µM", "setting": "Peptic cells [2]; Carbachol (2)", "value": 110, "unit": "%"}, {"measurement": "activity at 5 µM", "setting": "Peptic cells [2]; Forskolin (2)", "value": 100, "unit": "%"}, {"measurement": "activity at 50 µM", "setting": "Peptic cells [2]; CCK Stimulation (N = 5)", "value": 60, "unit": "%"}, {"measurement": "activity at 50 µM", "setting": "Peptic cells [2]; Carbachol (2)", "value": 40, "unit": "%"}, {"measurement": "activity at 50 µM", "setting": "Peptic cells [2]; Forskolin (2)", "value": 100, "unit": "%"}, {"measurement": "minimal effective concentration", "setting": "Peptic cells [2]; peptic cells, read-out: concentration below which no inhibition of the biological effect was observed", "value": "> 50", "unit": "µM"}, {"measurement": "effect on the Ca signal", "setting": "A431 cells", "value": "complete abolition"}, {"measurement": "tumor cell growth inhibition", "setting": "EL-4", "value": "inhibited from growing"}, {"measurement": "calcium entering through the plasma membrane calcium channels", "setting": "[3]", "value": "inhibits calcium from entering"}, {"measurement": "calcium release from intracellular stores", "setting": "intracellular stores", "value": "blocks calcium release"}]}
